Test results: patent publication EP4730355A1, “TYPING SYSTEM AND METHOD FOR HR-POSITIVE/HER2-NEGATIVE BREAST CANCER” (Lumitype Medical (Huzhou) Co., Ltd., priority 2023, dated 2024)
Values belong to the molecule of their own block, whether it stands above or below them.

How the values were obtained:
four subtypes of PDOs = assay: PDO drug response testing of traditional endocrine therapies (CellTiter-Glo 3D cell survival assay); assay type: cell-based, human; settings: compared among four subtypes of PDOs (n = 88)
Procedure: (§1) Briefly, the fresh breast cancer tissue is cut into small pieces using a sterile surgical knife. The tissue was digested and resuspended in 10 mL of TAC buffer, incubated for 3 minutes to remove red blood cells, and passed through a […] cell strainer (Corning). For passaging, 5 ml of harvesting solution (Trevigen, 3700-100-01) was used to digest the basement membrane extract (BME), which was incubated on ice for 1 hour. Subsequently, the organoids were centrifuged at 350 g for 5 minutes, washed in digestion buffer, and centrifuged. Next, 3 mL of TrypLE Express (Invitrogen) was added, and the organoids were incubated at room temperature for 3 minutes and then mechanically dissociated into small cell clusters using a pipette. The organoids were passaged every 2-3 weeks at a dilution ratio of 1:2-3.
(§2) Drug response testing of triple-negative breast cancer (TNBC) organoids was conducted according to the method of the published paper (Xiao Y, Ma D, Yang YS, Yang F, Ding JH, Gong Y, et al. Comprehensive metabolomics expands precision medicine for triple-negative breast cancer. CELL RES. 2022;32(5):477-90 doi 10.1038/s41422-022-00614-0.). Organoids without undergoing organoid drug treatment were harvested in good condition and digested into single cells. 25 microliters of organoid suspension was added to black cell-repellent surface of a 384-well plate with transparent bottoms (Greiner 781976-SIN) at 1 × 10^3 to 3 × 10^3 cells per well, and cultured for an additional 5-6 days prior to drug treatment. Organoids were co-cultured with the drug for 1 week and then tested for survival. According to the manufacturer's instructions, organoid cell survival rate was assessed by the CellTiter-Glo 3D cell survival assay (Promega, G9683).
The sensitivity of four subtypes of PDOs (n = 88) to three traditional endocrine therapies (estrogen deprivation, 4-hydroxytamoxifen (4OHtam), and fulvestrant) was compared on a PDO drug testing platform. […] In order to investigate the potential mechanism of SNF1 tumor sensitivity to endocrine therapy, the endocrine therapy-related pathways in the multi-omics data from Fudan University Shanghai Cancer Center were analyzed. […] In addition, the expression of endocrine therapy resistance pathways was also compared among the four subtypes.

SNF3-PDO = assay: PDO drug response testing with CDK4/6 inhibitor and PARP inhibitor (CellTiter-Glo 3D cell survival assay); assay type: cell-based, human; settings: for growth ability of SNF3-PDO: single drug; for PDO growth ability: SNF3 subtype and the non-SNF3 subtype (legend of FIGs. 31 and 32)
Procedure: as §1, §2
In order to gain an in-depth understanding of the biological characteristics of the SNF3 subtype, low-concentration 4-hydroxytamoxifen was used to induce PDO over an extended period to establish a model for studying acquired resistance to endocrine therapy (Xi Jin, Yi-Fan Zhou, Ding Ma, Shen Zhao, Cai-Jin Lin, Yi Xiao, et al. Integrative Molecular Classification of HR+/HER2- Breast Cancer Guides Precision Treatment. Nature Genetics under minor revision. 2023.02.26.).
In view of the high enrichment of SNF3 tumors in homologous recombination deficiency score, chromosomal instability, and cell cycle activity, the response of SNF3 PDOs to CDK4/6 inhibitors and PARP inhibitors was tested. […] In addition, regardless of BRCA mutation, the homologous recombination deficiency score of SNF3 tumors was much higher (FIG. 35). The above results indicated the therapeutic susceptibility of the SNF3 subtype to CDK4/6 inhibitors and PARP inhibitors; therefore, CDK4/6 inhibitors and PARP inhibitors or combinations thereof may be potential accurate treatment strategies for SNF3 tumors.

[1] = tested on: signaling pathway activated by PDGF in SNF4 tumor; assay: PDGF-activated signaling pathway changes after tyrosine kinase inhibitor treatment; assay type: cell-based, human
SNF4 tumors = assay: PDO drug sensitivity testing of tyrosine kinase inhibitors; assay type: cell-based, human; settings: for IC50: SNF4 tumors compared with other subtypes, PDO
Procedure: as §1, §2
Next, based on the identified key receptors, 12 tyrosine kinase inhibitors were selected to construct a "tyrosine kinase inhibitor combination," including tyrosine kinase inhibitors targeting the ErbB family (afatinib, lapatinib, pyrotinib), the PDGFR family (axitinib, sunitinib), the VEGFR family (foretinib, apatinib), the TAM receptor (sitravatinib), as well as some multi-target tyrosine kinase inhibitors (sorafenib, vandetanib, regorafenib, famitinib). The combination is used for PDO drug sensitivity testing to verify the tyrosine kinase inhibitor most sensitive to SNF4 tumors (FIG. 38). […] Combining the drug sensitivity results of the above 12 tyrosine kinase inhibitors and the targets of the above four drugs, VEGFR and PDGFR signaling were preliminarily identified as potential therapeutic vulnerabilities of SNF4 tumors.

[2] = tested on: advanced HR+/HER2- breast cancer; assay: Real-world retrospective clinical cohort of advanced HR+/HER2- breast cancer; assay type: in vivo, human; settings: SNF3 and SNF4 subtypes; advanced cohort of FUSCC, n = 277; p = 0.033
Description: Frequency tables and summary statistics were used to characterize data distribution. Wilcoxon test and Kruskal-Wallis test were used to compare continuous variables and categorical variables, and Pearson chi-square test and Fisher's exact test were used to compare unordered categorical variables. Survival curves were established using the Kaplan-Meier product-limit method and compared with the log-rank test to obtain RFS and PFS. RFS was defined as the time from diagnosis to the first recurrence or diagnosis of contralateral breast cancer. PFS was defined as the interval from the start of treatment to disease progression or death due to any cause (whichever occurs first), or to the time of the last PFS assessment for patients with progression-free survival. Univariate and multivariate Cox proportional hazards regression models were constructed to evaluate the hazard ratio (HR) and the corresponding 95% confidence interval (CI). All analyses were performed using R software package version 3.6.1 (https://cran.r-project.org/).
For deeper insights into the landscape of metastatic HR+/HER2- breast cancer, we constructed a real-world cohort of patients with advanced HR+/HER2- breast cancer from FUSCC and invited other three centers to participate in our real-world study. […] Their tumor progression were evaluated according to RECIST v1.1.

[3] = tested on: SNF4 subtype cancer-associated fibroblasts (CAF); assay: Efficacy on patient-derived cancer cells co-cultured with fibroblasts; assay type: cell-based, human; settings: sorafenib (1 µM)
Procedure: (F-G) The efficacy of sorafenib (1 µM) on patient-derived cancer cells co-cultured with fibroblasts. Scale bar: 100 micrometers. Cancer cells are treated with sorafenib three times. One representative experiment is shown. The experiment is repeated three times, and the results are similar.

Molecule: 4-hydroxytamoxifen
survival rate (four subtypes of PDOs; SNF1-PDO): lowest survival rate
survival rate (four subtypes of PDOs; SNF4-PDO): relatively higher survival rate
sensitivity to endocrine therapy (SNF3-PDO; SNF3-PDO after long-term induction with low-concentration 4-hydroxytamoxifen, unlike other subtypes): less sensitive to endocrine therapy

Molecule: CCN1CCN(Cc2ccc(Nc3ncc(F)c(-c4cc(F)c5nc(C)n(C(C)C)c5c4)n3)nc2)CC1 [abemaciclib, N-[5-[(4-ethyl-1-piperazinyl)methyl]-2-pyridinyl]-5-fluoro-4-[4-fluoro-2-methyl-1-(1-methylethyl)-1H-benzimidazol-6-yl]-2-pyrimidinamine]
growth ability of SNF3-PDO (SNF3-PDO): significantly inhibited
PDO growth ability (SNF3-PDO): significantly inhibited

signaling pathway activated by PDGF [1]: significantly downregulated
IC50 (SNF4 tumors): lower than that of other subtypes
Molecule: CCN(CC)CCN1CCc2[nH]c(/C=C3\C(=O)Nc4ccc(F)cc43)c(C)c2C1=O [famitinib]

Molecule: C[C@]12CC[C@@H]3c4ccc(O)cc4C[C@@H](CCCCCCCCC[S+]([O-])CCCC(F)(F)C(F)(F)F)[C@H]3[C@@H]1CC[C@@H]2O (some centres unmarked) [fulvestrant]
survival rate (four subtypes of PDOs; SNF1-PDO): lowest survival rate
survival rate (four subtypes of PDOs; SNF4-PDO): relatively higher survival rate
progression-free survival (PFS) [2]: worse progression-free survival

Molecule: O=C(c1cc(Cc2n[nH]c(=O)c3ccccc23)ccc1F)N1CCN(C(=O)C2CC2)CC1 [olaparib]
growth ability of SNF3-PDO (SNF3-PDO): significantly inhibited
PDO growth ability (SNF3-PDO): significantly inhibited

IC50 (SNF4 tumors): lower than that of other subtypes
Molecule: CNC(=O)c1cc(Oc2ccc(NC(=O)Nc3ccc(Cl)c(C(F)(F)F)c3)c(F)c2)ccn1 [regorafenib]
cell viability of SNF4 tumors (SNF4 tumors; after treatment, Wilcoxon test): significantly decreased

signaling pathway activated by PDGF [1]: significantly downregulated
IC50 (SNF4 tumors): lower than that of other subtypes
Molecule: CNC(=O)c1cc(Oc2ccc(NC(=O)Nc3ccc(Cl)c(C(F)(F)F)c3)cc2)ccn1 [sorafenib]
sensitivity of SNF4 subtype cancer-associated fibroblasts (CAF) [3]: sensitive
